According to patent EP3995135B1, “PROLONGED RELEASE DOSAGE FORM OF […]-(+)- TARTARIC ACID SALT” (Grünenthal GmbH, priority 2020, dated 2022):
Counter-ions that a name gives are not always drawn.

Columns and labels:
[1] = Thermodynamic solubility (saturation solubility, HPLC quantification as free base); format: physicochemical; conditions: for Thermodynamische Löslichkeit, Assay ausgedrückt als Base: 24 h at 25°C; for pH Ende: pH of the solution at the end (24 h, 25°C); for pH Start: pH of the solution at the start
Protocol: Die thermodynamische Löslichkeit von Tapentadolhydrochlorid und des Salzes von Tapentadol mit L-(+)-Weinsäure wurde als Sättigungslöslichkeit in verschiedenen Medien bei verschiedenen pH-Werten bestimmt. Die Lösungen wurden 24 Stunden bei 25°C gerührt und die pH-Werte der Lösungen zu Beginn und am Ende der Experimente wurden gemessen. Die gelöste Menge an Tapentadol wurde durch HPLC quantifiziert (freie Base von Tapentadol). Die experimentellen Ergebnisse sind in der Tabelle unten zusammengestellt: […]

[2] = Intrinsic dissolution (dissolution rate) of compressed salt samples in a Wood apparatus; format: physicochemical; conditions: 37°C, 900 ml, 50 U/min
Protocol: 100 mg Tapentadol, entweder in Form des Hydrochloridsalzes oder des Salzes mit L-(+)-Weinsäure wurden mit einer Presskraft von 200 kg (gravitativ) bei einer Oberfläche von 0,5 cm^2 1 Minute verpresst. Die so erhaltenen verpressten Proben wurden in einem Wood-Apparat bei 37°C in 900 ml Auflösungsmedium bei verschiedenen pH-Werten und einer Paddeldrehgeschwindigkeit von 50 U/min auf ihre Auflösungsrate untersucht.

Row | SMILES | Thermodynamische Löslichkeit, Assay ausgedrückt als Base ([1]; medium 0,1 M HCl) | Thermodynamische Löslichkeit, Assay ausgedrückt als Base ([1]; medium Acetat pH 4,5) | Thermodynamische Löslichkeit, Assay ausgedrückt als Base ([1]; medium SIF sp pH 6,8) | Thermodynamische Löslichkeit, Assay ausgedrückt als Base ([1]; medium Wasser) | pH Ende ([1]; medium 0,1 M HCl) | pH Ende ([1]; medium Acetat pH 4,5) | pH Ende ([1]; medium SIF sp pH 6,8) | pH Ende ([1]; medium Wasser) | pH Start ([1]; medium 0,1 M HCl) | pH Start ([1]; medium Acetat pH 4,5) | pH Start ([1]; medium SIF sp pH 6,8) | intrinsische Auflösung (Auflösungsrate) ([2]; pH 1,0, 0 min) [%] | intrinsische Auflösung (Auflösungsrate) ([2]; pH 1,0, 1 min) [%] | intrinsische Auflösung (Auflösungsrate) ([2]; pH 1,0, 3 min) [%] | intrinsische Auflösung (Auflösungsrate) ([2]; pH 1,0, 5 min) [%] | intrinsische Auflösung (Auflösungsrate) ([2]; pH 4,5, 0 min) [%] | intrinsische Auflösung (Auflösungsrate) ([2]; pH 4,5, 1 min) [%] | intrinsische Auflösung (Auflösungsrate) ([2]; pH 4,5, 3 min) [%] | intrinsische Auflösung (Auflösungsrate) ([2]; pH 4,5, 5 min) [%] | intrinsische Auflösung (Auflösungsrate) ([2]; pH 6,8, 0 min) [%] | further results
1 | CC[C@@H](c1cccc(O)c1)[C@@H](C)CN(C)C [Salz von Tapentadol mit L-(+)-Weinsäure, (-)-(1R,2R)-3-(3-Dimethylamino-1-ethyl-2-methylpropyl)phenol] | 26,7 g/100 ml | 26,6 g/100 ml | 12,6 g/100 ml | 26,4 g/100 ml | 3,39 | 3,53 | 3,55 | 3,38 | 1,15 | 4,51 | 6,83 | 0 | 19 | 51 | 77 | 0 | 20 | 51 | 77 | 0 | Thermodynamische Löslichkeit, Assay ausgedrückt als Base ([1]; medium Phosphat pH 7,4): 12,9 g/100 ml; pH Ende ([1]; medium Phosphat pH 7,4): 3,56; pH Start ([1]; medium Phosphat pH 7,4): 7,53; pH Start ([1]; medium Wasser): 6,19; intrinsische Auflösung (Auflösungsrate) ([2]; pH 6,8, 1 min): 19%; intrinsische Auflösung (Auflösungsrate) ([2]; pH 6,8, 3 min): 44%; intrinsische Auflösung (Auflösungsrate) ([2]; pH 6,8, 5 min): 67%; intrinsische Auflösung (Auflösungsrate) ([2]; pH 7,4, 0 min): 0%; intrinsische Auflösung (Auflösungsrate) ([2]; pH 7,4, 1 min): 18%; intrinsische Auflösung (Auflösungsrate) ([2]; pH 7,4, 3 min): 44%; intrinsische Auflösung (Auflösungsrate) ([2]; pH 7,4, 5 min): 65%
2 | CC[C@@H](c1cccc(O)c1)[C@@H](C)CN(C)C [Tapentadolhydrochlorid, (-)-(1R,2R)-3-(3-Dimethylamino-1-ethyl-2-methylpropyl)phenol, reference compound] | 31,2 g/100 ml | 32,7 g/100 ml | 32,4 g/100 ml | 33,0 g/100 ml | 0,83 | 4,29 | 6,23 | 4,63 | 1,11 | 4,54 | 6,82 | 0 | 52 | 95 | 99 | 0 | 60 | 91 | 95 | 0 | Thermodynamische Löslichkeit, Assay ausgedrückt als Base ([1]; medium Citrat pH 7.4): 31,9 g/100 ml; pH Ende ([1]; medium Citrat pH 7.4): 6,33; pH Start ([1]; medium Citrat pH 7.4): 7,39; intrinsische Auflösung (Auflösungsrate) ([2]; pH 6,8, 1 min): 38%; intrinsische Auflösung (Auflösungsrate) ([2]; pH 6,8, 3 min): 79%; intrinsische Auflösung (Auflösungsrate) ([2]; pH 6,8, 5 min): 92%; intrinsische Auflösung (Auflösungsrate) ([2]; pH 7,4, 0 min): 0%; intrinsische Auflösung (Auflösungsrate) ([2]; pH 7,4, 1 min): 27%; intrinsische Auflösung (Auflösungsrate) ([2]; pH 7,4, 3 min): 65%; intrinsische Auflösung (Auflösungsrate) ([2]; pH 7,4, 5 min): 80%
